Patent US20070015232A1, “Mitotic index assay” (DiscoveRx, Inc., priority 2005, published 2007)

Assays:
[1] = test system: C2C12+EA-NLS/NRS+GR-PL cells; assay: EFC mitotic index assay, C2C12+EA-NLS/NRS+GR-PL cells (Stanford GR cells); assay type: cell-based, mouse; conditions: 24 hours, 30 min read
Description: (§1) In all experiments described, 20,000 cells/well were plated in a 96 well Corning clear bottom white plate in a total volume of 100 μL. The cells were treated for 24 hours with 5 μL of either the appropriate vehicle control or varying concentrations of the six compounds listed above. The next day, 100 μL of Tropix/ABI Gal screen cell lysis buffer/substrate mixture (24:1 ratio of component) was added to the cells/media and the plate was read on the Victor II luminescent plate reader at 30, 60 and 120 minutes after the lysis/substrate addition.
(§2) The initial test of the cell cycle arresting compounds was performed on a double stable cell line having both of the constructs expressing the EA-NLS/NRS and GR-PL. (PL is β-galactosidase enzyme donor fragment and EA is the enzyme acceptor fragment available from DiscoveRx, Fremont, CA.). The parental line, C2C12 is derived from mouse muscle cells. In the experiments in which EA-NLS/NRS and GR-PL are expressed in the C2C12 parental cell line, the constructs were generated by subcloning the human GR sequence into a MFG-based retroviral vector that had been molecularly altered in a lab at Stanford. An MFG vector is described in U.S. Pat. No. 6,544,771. The EA-NLS/NRS fragment was subcloned into a wzl-based retroviral vector again molecularly altered in a lab at Stanford. In the experiments performed using a CHO-K1 parental cell line background the EA-NLS/NRS was subcloned into the Kpn I and Xba I sites of pcDNA3.1 Hygro vector from Invitrogen (catalog #V870-20). The plasmid was introduced into the cells via FuGene6 (Roche) transfection reagent. Cells were selected in the presence of 250 μg/mL of Hygromycin and single cell clones isolated that expressed the EA-NLS/NRS. The human GR gene was cloned by PCR and subcloned into the Xho I and Bam HI sites of the DiscoveRx vector-pCMV-myc-PL (C3). The plasmid was introduced into the selected EA-NLS/NRS expressing clone isolated above by FuGene 6 transfection. Another round of screening in the presence of 300-500 μg/mL of G418 was used to select GR-PL transfected clones. Clonal selection was performed to finally identify the clone that was used in these studies. In the studies using the CHO-K1+cyto-EA and cJUN-PL, the same Invitrogen pcDNA3.1 Hygro vector was used to express EA. In this case, the EA fragment was subcloned into the Kpn I/Not I sites of pcDNA3.1 Hygro. The plasmid DNA was introduced as described above using FuGene6 reagent. Cells were selected in the presence of 250 μg/mL of hygromycin and clonal selection was performed. The c-Jun gene was generated by PCR using an existing template copy of the gene and then subcloned into the Xho I/Bam HI sites of pCMV-PL-myc (C3).

[2] = test system: CHO-K1+EA-NLS/NRS+GR-PL cells; assay: EFC mitotic index assay, CHO-K1+EA-NLS/NRS+GR-PL cells, antibiotic selected pool (DX M19/GR pool); assay type: cell-based; conditions: 24 hours, 30 min read
Description: as §1, §2
In the next experiment, an antibiotic selected pool population of CHO-K1 cells that express EA-NLS/NRS and GR-PL were tested with the same six set of cell cycle blocking compounds. […] FIGS. 2a and 2b show the immunofluorescence localization of EA and GR-PL in that the blue DAPI nuclear staining can be seen to be concentrated in the nucleus, while the green fluorescein stain on the antibody (from Abcam PLC) to the glucocorticoid receptor is seen in the cytoplasm. […] Again, six tables are presented one for each of the six drugs tested.
This only occurs with compounds that block the cells in mitosis, allowing EA and ProLabel to complement.

[3] = test system: Clone #69 CHO-K1 cells expressing EA-NLS/NRS and GR-PL; assay: EFC assay in stable clone #69 (CHO-K1, EA-NLS/NRS and GR-PL) with or without RU486 pre-incubation; assay type: cell-based; conditions: for Avg luminescence readout / R1 luminescence readout / R3 luminescence readout / Ratio (Avg vs 0 conc): overnight, vehicle pre-incubation
Description: In the next experiment, a stable clone (clone #69) expressing both EA-NLS/NRS and GR-PL was isolated in a CHO-K1 parental background. […] 20,000 cells/well were plated in a 96 well white coming multi-well plate and allowed to adhere overnight. The next day, the cells were washed two times with serum free F12 media and 100 μL of serum free F12 media was added to the cells. The cells were then incubated in either vehicle (ethanol-1% final concentration) or 10 μM RU486 for one hour. To the cells, three different concentrations of dexamethasone (300, 100, 30 μM) (an agonist of GR), RU486 (30, 10, 3.33 μM), colchicine (1, 0.3, 0.1 μ/mL) or nocodazole (10, 3.33, 1.11 μg/mL) were added and the incubation went overnight at 37° C. with 5% CO2. The next day, the media was aspirated off and 100 μL of Tropix/ABI Gal screen cell lysis/substrate reagent was added to the cells. The plate was read on the Victor II reader at 30, 60 and 120 minutes.

[4] = test system: CHO-K1+cyto-EA cells transfected with cJUN-PL; assay: EFC mitotic index assay, CHO-K1+cyto-EA cells transiently transfected with cJUN-PL; assay type: cell-based; conditions: for Avg luminescence readout / R1 luminescence readout / R3 luminescence readout / Ratio (Avg vs 0 conc): overnight
Description: as §2
To further test the concept of sequestering of one β-galactosidase enzyme fragment in the nucleus (in this case PL) while localizing the other component in the cytoplasm (in this case EA) the following experiment was carried out. […] The cyto-EA cells were transiently transfected with cJUN-PL plasmid DNA. Two days after the transfection, the cells were re-plated into a 96 well Corning white clear bottom multiwell plate at 20,000 cells/well. The cells were allowed to adhere overnight and the next day were treated with titrating concentrations of the six different cell cycle blocking compounds. The incubation was carried out overnight. The next day the media was removed from the cells and 100 μL of Tropix/ABI Gal screen cell lysis/substrate reagent was added to the cells.

[5] = High conc (nocodazole 10 μg/mL, colchicine 1 μ/mL, dexamethasone 300 μM, RU486 30 μM)
[6] = Low conc (nocodazole 1.11 μg/mL, colchicine 0.1 μ/mL, dexamethasone 30 μM, RU486 3.33 μM)
[7] = Med conc (nocodazole 3.33 μg/mL, colchicine 0.3 μ/mL, dexamethasone 100 μM, RU486 10 μM)

COc1cc2c(c(OC)c1OC)-c1ccc(OC)c(=O)cc1[C@@H](NC(C)=O)CC2 [Colchicine, colchicine]
Avg luminescence readout ([1]; 0.03 μM): 11782
R1 luminescence readout ([1]; 0.03 μM): 10442
R3 luminescence readout ([1]; 0.03 μM): 12456
Ratio (Avg vs 0 conc) ([1]; 0.03 μM): 1
Avg luminescence readout ([1]; 0.1 μM): 9170
R1 luminescence readout ([1]; 0.1 μM): 6763
R3 luminescence readout ([1]; 0.1 μM): 10724
Ratio (Avg vs 0 conc) ([1]; 0.1 μM): 1
Avg luminescence readout ([1]; 0.3 μM): 11243
R1 luminescence readout ([1]; 0.3 μM): 11132
R3 luminescence readout ([1]; 0.3 μM): 12160
Ratio (Avg vs 0 conc) ([1]; 0.3 μM): 1
Avg luminescence readout ([1]; 1 μM): 12083
R1 luminescence readout ([1]; 1 μM): 11891
R3 luminescence readout ([1]; 1 μM): 11866
Ratio (Avg vs 0 conc) ([1]; 1 μM): 1
Avg luminescence readout ([2]; 0.03 μM): 3412
R1 luminescence readout ([2]; 0.03 μM): 3128
R3 luminescence readout ([2]; 0.03 μM): 3727
Ratio (Avg vs 0 conc) ([2]; 0.03 μM): 1
Avg luminescence readout ([2]; 0.1 μM): 5814
R1 luminescence readout ([2]; 0.1 μM): 6507
R3 luminescence readout ([2]; 0.1 μM): 4886
Ratio (Avg vs 0 conc) ([2]; 0.1 μM): 2
Avg luminescence readout ([2]; 0.3 μM): 7251
R1 luminescence readout ([2]; 0.3 μM): 7078
R3 luminescence readout ([2]; 0.3 μM): 7341
Ratio (Avg vs 0 conc) ([2]; 0.3 μM): 3
Avg luminescence readout ([2]; 1 μM): 11843
R1 luminescence readout ([2]; 1 μM): 10671
R3 luminescence readout ([2]; 1 μM): 13178
Ratio (Avg vs 0 conc) ([2]; 1 μM): 4
effect of incubation with RU486 on the EFC response (in words) ([3]; 10 μM RU486 pre-incubation for one hour): not blocked by the incubation with RU486
Avg luminescence readout [3, 5]: 1623
R1 luminescence readout [3, 5]: 1850
R3 luminescence readout [3, 5]: 1323
Ratio (Avg vs 0 conc) [3, 5]: 4
Avg luminescence readout [3, 6]: 1136
R1 luminescence readout [3, 6]: 1274
R3 luminescence readout [3, 6]: 1007
Ratio (Avg vs 0 conc) [3, 6]: 3
Avg luminescence readout [3, 7]: 1241
R1 luminescence readout [3, 7]: 1345
R3 luminescence readout [3, 7]: 1073
Ratio (Avg vs 0 conc) [3, 7]: 3
Avg luminescence readout ([4]; 0.3 μg/mL): 8548
R1 luminescence readout ([4]; 0.3 μg/mL): 7491
R3 luminescence readout ([4]; 0.3 μg/mL): 9730
Ratio (Avg vs 0 conc) ([4]; 0.3 μg/mL): 1.2
Avg luminescence readout ([4]; 1.0 μg/mL): 10762
R1 luminescence readout ([4]; 1.0 μg/mL): 11290
R3 luminescence readout ([4]; 1.0 μg/mL): 9929
Ratio (Avg vs 0 conc) ([4]; 1.0 μg/mL): 1.5
Avg luminescence readout ([4]; 3.0 μg/mL): 13255
R1 luminescence readout ([4]; 3.0 μg/mL): 12822
R3 luminescence readout ([4]; 3.0 μg/mL): 13005
Ratio (Avg vs 0 conc) ([4]; 3.0 μg/mL): 1.9
Avg luminescence readout ([4]; 10.0 μg/mL): 14719
R1 luminescence readout ([4]; 10.0 μg/mL): 13772
R3 luminescence readout ([4]; 10.0 μg/mL): 14302
Ratio (Avg vs 0 conc) ([4]; 10.0 μg/mL): 2.1
increase in EFC activity ([4]; overnight incubation): ~2.1 fold

C[C@@H]1C[C@H]2[C@@H]3CCC4=CC(=O)C=C[C@]4(C)[C@@]3(F)[C@@H](O)C[C@]2(C)[C@@]1(O)C(=O)CO [Dexamethasone, dexamethasone]
Avg luminescence readout [3, 5]: 2559
R1 luminescence readout [3, 5]: 3173
R3 luminescence readout [3, 5]: 1934
Ratio (Avg vs 0 conc) [3, 5]: 7
Avg luminescence readout [3, 6]: 1258
R1 luminescence readout [3, 6]: 1528
R3 luminescence readout [3, 6]: 1016
Ratio (Avg vs 0 conc) [3, 6]: 3
Avg luminescence readout [3, 7]: 1697
R1 luminescence readout [3, 7]: 2033
R3 luminescence readout [3, 7]: 1290
Ratio (Avg vs 0 conc) [3, 7]: 4
